Data taken from publication PMC9948186 (ACS Omega, 2023).

Target: T1, Microtubule affinity regulatory kinase 4 (MARK4) (Homo sapiens, UniProt Q96L34)
T1 sequence (Q96L34 1-752): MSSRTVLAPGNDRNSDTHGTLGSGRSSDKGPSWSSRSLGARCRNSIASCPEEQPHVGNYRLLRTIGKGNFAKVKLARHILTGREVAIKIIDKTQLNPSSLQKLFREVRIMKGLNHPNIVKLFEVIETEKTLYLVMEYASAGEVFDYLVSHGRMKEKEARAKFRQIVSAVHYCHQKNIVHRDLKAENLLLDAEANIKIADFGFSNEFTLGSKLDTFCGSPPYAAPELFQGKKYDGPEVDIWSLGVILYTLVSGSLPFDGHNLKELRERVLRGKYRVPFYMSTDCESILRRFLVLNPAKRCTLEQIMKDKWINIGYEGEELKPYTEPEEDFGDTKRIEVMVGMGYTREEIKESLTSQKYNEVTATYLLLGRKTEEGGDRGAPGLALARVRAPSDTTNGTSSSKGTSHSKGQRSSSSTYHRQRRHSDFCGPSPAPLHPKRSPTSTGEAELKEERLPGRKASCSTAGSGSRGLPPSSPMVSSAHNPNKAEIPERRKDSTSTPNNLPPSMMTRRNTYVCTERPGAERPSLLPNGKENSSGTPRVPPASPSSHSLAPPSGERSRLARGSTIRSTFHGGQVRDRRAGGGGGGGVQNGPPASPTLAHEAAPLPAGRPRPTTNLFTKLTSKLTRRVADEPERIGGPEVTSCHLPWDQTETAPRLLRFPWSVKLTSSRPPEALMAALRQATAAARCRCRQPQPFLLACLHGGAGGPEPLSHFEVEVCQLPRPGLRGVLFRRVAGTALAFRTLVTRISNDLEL
Experiment: malachite green ATPase
Format: biochemical

## CC#CCn1c(N2CCC[C@@H](N)C2)nc2c1c(=O)n(Cc1nc(C)c3ccccc3n1)c(=O)n2C [linagliptin]
  IC50: 7.63 µM

## OC[C@H]1O[C@@H](c2ccc(Cl)c(Cc3ccc(O[C@H]4CCOC4)cc3)c2)[C@H](O)[C@@H](O)[C@@H]1O [empagliflozin]
  IC50: 7.1 µM
